IC50 and AC50 data for ten compounds are collected here from ChEMBL document CHEMBL1201862, “PubChem BioAssay data set” (2004).

Assay [1] concerns the target Metabotropic glutamate receptor 3 (Rattus norvegicus, UniProt P31422). The assay is described as follows: mGlu3 negative allosteric modulator potency, dose response, HEK/GIRK cells, thallium flux, rat (AID 651839). The assay is classed as functional.
Assay [2] deals with 1-phosphatidylinositol 4,5-bisphosphate phosphodiesterase gamma-1 (Homo sapiens, UniProt P19174). The assay is described as follows: Counterscreen for inhibitors of phospholipase C isozymes (PLC-B3): Fluorescence-based biochemical high throughput dose response assay to identify inhibitors of phospholipase C isozymes (PLC-gamma1).
The target in assay [3] is 1-phosphatidylinositol 4,5-bisphosphate phosphodiesterase beta-3 (Homo sapiens, UniProt Q01970). The assay is described as follows: Fluorescence-based biochemical high throughput dose response assay to identify inhibitors of phospholipase C isozymes (PLC-B3).
Assay [4] addresses NAD-dependent protein deacylase sirtuin-5, mitochondrial (Homo sapiens, UniProt Q9NXA8). The assay is described as follows: SIRT5 deacylase inhibitors, dose response, biochemical, fluorescence imaging, cherry-pick, set 6 (AID 720597).
A short description of assay [5]: inhibitors of PGC1a acetylation in cells, dose response, cell-based, cherry-picked samples (AID 720514).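 Also: potency may reflect raised or lowered acetylation signal.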 The assay is classed as functional.
Assay [6] in a line: PAX2 cell-based inhibition, dose response, selectivity assay for PAX8 inhibitor project, plate reader, dry powder samples (AID 743048).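 Also: HEK293 cells carrying a WT1 promoter luciferase reporter driven by expressed Pax2; potency is for inhibition of Pax2 driven reporter signal.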 It is filed as functional.
Assay [7] is described as follows: NIH:OVCAR-3 ovarian cancer cell cytotoxicity, dose response, PAX8 inhibitor project, plate reader, dry powder samples (AID 743044). It is filed as functional, cell-based.
The nature of assay [8]: PAX5 activity inhibitors, dose response, selectivity assay for PAX8 inhibitor project, cell-based, plate reader, dry powder samples (AID 743047).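 Also: HEK293 cells carrying a Pax5 driven CD19 promoter luciferase reporter; potency of inhibitors that lower reporter luminescence.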 The assay is classed as functional.
A short description of assay [9]: cytotoxicity in OV-90 ovarian cancer cells, dose response, PAX8 inhibitor project, cell-based, plate reader, dry powder, SA8 (AID 743149). The assay is classed as functional.
Assay [10] in a line: cytotoxicity dependent on PAX8, dose response, cell-based, plate reader, dry powder (AID 743049). The assay is classed as functional.
Assay [11] in a line: A375 melanoma cell viability loss, dose response, counter-screen for MITF inhibitor project, CellTiter-Glo luminescence, dry powder, set 4 (AID 624364).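 Also: A375 melanoma cells are MITF independent so this is a counter screen.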 The assay is classed as functional, cell-based. Particulars: A-375.
Assay [12] in a line: A375 melanoma cell cytotoxicity, dose response, counter-screen for MITF inhibitor project, CellTiter-Glo luminescence, dry powder, set 2 (AID 624489).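 Also: actives are compounds lowering A375 viability meaning general cytotoxicity.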 It is filed as functional, cell-based. Particulars: A-375.
A short description of assay [13]: P. falciparum 3D7-ScDHODH growth inhibitors, dose response, SYBR Green, dry powder samples (AID 1159570).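 Also: parasite growth measured after 72 hours of compound exposure.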 It is filed as functional, cell-based.
The nature of assay [14]: HepG2 cell cytotoxicity, dose response, cytotoxicity control, plate reader, dry powder samples (AID 1159569).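 Also: inhibitor potency with signal falling toward the positive control level.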 The assay is classed as functional, cell-based.
Assay [15] in a line: P. falciparum Dd2 growth inhibitors, dose response, SYBR Green, cherry-picked samples (AID 1159567). It is filed as functional, cell-based.
Assay [16] is described as follows: P. falciparum Dd2 growth inhibitors, dose response, SYBR Green, dry powder samples (AID 1159566).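 Also: potency for growth inhibition with lower SYBR green DNA signal.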 It is filed as functional, cell-based.
Assay [17] in a line: P. falciparum ATP4 D1247Y mutant growth inhibitors, dose response, NITD609-resistant line, SYBR Green, dry powder (AID 1159571).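 Also: parasites synchronized at ring stage by sorbitol before testing.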 It is filed as functional, cell-based.

Activity calls are given as the source filed them. Rule as the data show it, for most assays here: actives have a measured AC50 and inactives only a lower limit.

NAD-dependent protein deacylase sirtuin-5, mitochondrial, sequence (Q9NXA8 whole entry): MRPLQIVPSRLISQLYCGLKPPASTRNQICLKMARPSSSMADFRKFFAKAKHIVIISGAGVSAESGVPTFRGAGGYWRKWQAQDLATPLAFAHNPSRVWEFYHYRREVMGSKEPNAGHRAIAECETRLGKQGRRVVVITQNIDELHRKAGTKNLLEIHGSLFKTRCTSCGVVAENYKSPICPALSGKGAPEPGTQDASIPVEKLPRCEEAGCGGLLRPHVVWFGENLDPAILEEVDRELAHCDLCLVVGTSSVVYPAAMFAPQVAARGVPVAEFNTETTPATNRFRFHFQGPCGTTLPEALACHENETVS
Metabotropic glutamate receptor 3, sequence (P31422 whole entry): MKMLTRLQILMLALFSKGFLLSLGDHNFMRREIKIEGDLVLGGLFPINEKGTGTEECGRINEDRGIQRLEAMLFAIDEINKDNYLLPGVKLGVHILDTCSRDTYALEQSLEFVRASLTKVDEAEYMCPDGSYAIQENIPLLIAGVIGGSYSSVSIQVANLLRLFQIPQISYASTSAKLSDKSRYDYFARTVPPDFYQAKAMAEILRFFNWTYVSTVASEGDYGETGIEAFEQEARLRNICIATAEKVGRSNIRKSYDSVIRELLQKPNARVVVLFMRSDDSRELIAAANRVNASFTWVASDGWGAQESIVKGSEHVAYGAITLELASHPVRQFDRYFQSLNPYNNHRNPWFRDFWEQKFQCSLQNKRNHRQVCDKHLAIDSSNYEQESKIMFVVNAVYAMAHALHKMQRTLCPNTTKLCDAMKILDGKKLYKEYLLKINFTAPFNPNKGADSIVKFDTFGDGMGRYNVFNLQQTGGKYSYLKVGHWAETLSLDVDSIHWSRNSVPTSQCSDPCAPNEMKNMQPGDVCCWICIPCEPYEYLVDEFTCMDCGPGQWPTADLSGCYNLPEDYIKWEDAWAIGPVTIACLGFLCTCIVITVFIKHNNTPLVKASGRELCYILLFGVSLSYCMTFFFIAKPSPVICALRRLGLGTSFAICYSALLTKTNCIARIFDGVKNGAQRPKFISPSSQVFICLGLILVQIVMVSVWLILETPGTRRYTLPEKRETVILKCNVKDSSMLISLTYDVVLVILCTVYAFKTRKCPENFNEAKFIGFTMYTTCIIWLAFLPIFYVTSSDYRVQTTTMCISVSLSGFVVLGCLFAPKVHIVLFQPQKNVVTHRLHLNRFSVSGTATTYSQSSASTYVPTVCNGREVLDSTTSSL
1-phosphatidylinositol 4,5-bisphosphate phosphodiesterase beta-3, sequence (Q01970 whole entry): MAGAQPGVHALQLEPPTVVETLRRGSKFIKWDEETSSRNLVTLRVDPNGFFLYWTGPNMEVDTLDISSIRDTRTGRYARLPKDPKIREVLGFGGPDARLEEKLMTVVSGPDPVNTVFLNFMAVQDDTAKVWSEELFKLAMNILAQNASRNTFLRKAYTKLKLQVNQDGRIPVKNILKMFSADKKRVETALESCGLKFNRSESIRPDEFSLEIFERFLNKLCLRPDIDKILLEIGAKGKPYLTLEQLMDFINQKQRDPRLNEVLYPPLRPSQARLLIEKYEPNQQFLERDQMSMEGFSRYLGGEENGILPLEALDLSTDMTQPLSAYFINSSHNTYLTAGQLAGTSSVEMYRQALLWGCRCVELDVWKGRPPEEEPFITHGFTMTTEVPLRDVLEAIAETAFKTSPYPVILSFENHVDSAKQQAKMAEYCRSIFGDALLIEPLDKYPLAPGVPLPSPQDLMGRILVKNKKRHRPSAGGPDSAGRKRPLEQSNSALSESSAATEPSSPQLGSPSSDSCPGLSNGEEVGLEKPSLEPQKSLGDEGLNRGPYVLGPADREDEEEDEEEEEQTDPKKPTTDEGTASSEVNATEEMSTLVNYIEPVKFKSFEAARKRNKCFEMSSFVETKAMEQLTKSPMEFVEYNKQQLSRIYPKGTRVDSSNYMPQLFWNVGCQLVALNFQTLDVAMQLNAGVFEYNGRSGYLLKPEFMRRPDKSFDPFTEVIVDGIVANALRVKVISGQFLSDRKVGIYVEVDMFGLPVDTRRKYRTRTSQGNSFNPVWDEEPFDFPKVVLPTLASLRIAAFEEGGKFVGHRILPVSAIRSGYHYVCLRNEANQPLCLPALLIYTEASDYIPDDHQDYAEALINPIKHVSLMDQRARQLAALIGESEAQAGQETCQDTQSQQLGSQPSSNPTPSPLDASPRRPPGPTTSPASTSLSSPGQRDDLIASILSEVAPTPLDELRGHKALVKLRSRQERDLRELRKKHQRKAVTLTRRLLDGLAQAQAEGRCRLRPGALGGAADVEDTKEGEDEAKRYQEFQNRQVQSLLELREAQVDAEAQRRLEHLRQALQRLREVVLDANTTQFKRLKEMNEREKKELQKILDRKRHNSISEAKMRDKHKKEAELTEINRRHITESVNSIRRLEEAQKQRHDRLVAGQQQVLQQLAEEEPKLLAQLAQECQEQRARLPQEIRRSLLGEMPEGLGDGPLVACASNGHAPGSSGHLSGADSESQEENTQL
1-phosphatidylinositol 4,5-bisphosphate phosphodiesterase gamma-1, sequence (P19174 whole entry): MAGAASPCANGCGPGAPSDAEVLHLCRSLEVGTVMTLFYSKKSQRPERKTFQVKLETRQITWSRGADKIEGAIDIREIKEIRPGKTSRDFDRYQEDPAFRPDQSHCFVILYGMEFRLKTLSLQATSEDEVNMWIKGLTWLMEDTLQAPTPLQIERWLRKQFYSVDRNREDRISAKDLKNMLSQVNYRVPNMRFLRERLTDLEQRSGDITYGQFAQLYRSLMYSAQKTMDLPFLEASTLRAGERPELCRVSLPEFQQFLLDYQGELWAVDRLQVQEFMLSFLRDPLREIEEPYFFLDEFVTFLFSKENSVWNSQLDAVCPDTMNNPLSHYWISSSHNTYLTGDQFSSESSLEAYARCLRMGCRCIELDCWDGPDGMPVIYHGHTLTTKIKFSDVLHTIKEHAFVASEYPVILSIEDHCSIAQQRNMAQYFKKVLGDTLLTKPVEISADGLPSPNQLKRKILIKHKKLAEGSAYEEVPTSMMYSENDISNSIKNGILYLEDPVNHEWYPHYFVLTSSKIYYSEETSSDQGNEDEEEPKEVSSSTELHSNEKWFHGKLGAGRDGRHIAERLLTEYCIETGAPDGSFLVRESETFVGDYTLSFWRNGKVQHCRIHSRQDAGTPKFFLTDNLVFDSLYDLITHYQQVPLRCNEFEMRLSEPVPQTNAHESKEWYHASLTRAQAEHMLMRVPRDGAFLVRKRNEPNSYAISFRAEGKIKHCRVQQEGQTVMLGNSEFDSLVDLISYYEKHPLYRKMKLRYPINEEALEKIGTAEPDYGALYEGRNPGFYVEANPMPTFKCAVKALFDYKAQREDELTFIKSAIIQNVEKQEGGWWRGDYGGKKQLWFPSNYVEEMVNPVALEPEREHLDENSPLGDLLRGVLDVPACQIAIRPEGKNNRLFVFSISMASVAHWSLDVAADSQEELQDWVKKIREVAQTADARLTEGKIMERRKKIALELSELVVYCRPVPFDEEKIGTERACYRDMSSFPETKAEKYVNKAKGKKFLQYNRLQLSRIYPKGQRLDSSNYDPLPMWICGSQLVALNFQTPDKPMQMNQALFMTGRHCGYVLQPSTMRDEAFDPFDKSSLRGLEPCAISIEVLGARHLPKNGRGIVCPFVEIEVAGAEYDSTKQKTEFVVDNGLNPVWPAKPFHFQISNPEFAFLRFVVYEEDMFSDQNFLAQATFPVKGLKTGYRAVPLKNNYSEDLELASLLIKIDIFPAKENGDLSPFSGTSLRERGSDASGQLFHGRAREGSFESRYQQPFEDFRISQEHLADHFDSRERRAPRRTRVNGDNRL

In the case of `COc1ccc(C#Cc2ccc(C(=O)N3CCCC(OC)C3)cc2)cc1` (stereo unspecified), the IC50 in assay [1] is 7.15 µM (active).
`Cc1ccc(OCCn2c(CCNC(=O)C3CCCCCC3)nc3ccccc32)cc1`: the IC50 in assay [2] and in assay [3] was > 123 µM (inactive) throughout.
Take `C[C@H]1CN([C@@H](C)CO)C(=O)c2cccc(NC(=O)NC3CCCCC3)c2O[C@@H]1CN(C)Cc1ccc(C(=O)O)cc1`: the half-maximal activity concentration (AC50) in assay [4] was 22.8 µM (active).
The same measure, in the same setting: the result for `C[C@@H]1CN([C@@H](C)CO)C(=O)c2cc(NS(=O)(=O)c3ccccc3)ccc2O[C@@H]1CN(C)CC1CCCCC1` reads > 30 µM (inactive).
As to `O=C(c1ccc2cc(-c3cccc(OCc4ccccc4)c3)ccc2c1)N1CCCC(CO)C1` (stereo unspecified), the IC50 in assay [1] is 1.08 µM (inactive).
`C[C@H](CO)N1C[C@H](C)[C@@H](CN(C)C(=O)C2CCCCC2)Oc2cc(C#Cc3ccncc3)ccc2S1(=O)=O`: the concentration at half-maximal activity (AC50) in [5] was 9.86 µM (active).
`COC(=O)[C@@]1(CCS(=O)(=O)c2ccccc2)N=C(c2ccc(OCCCO)cc2)O[C@H]1c1ccccc1`: the half-maximal activity concentration (AC50) in [6] is 58.6 µM (active); in [7], 95 µM (active); in assay [8], 77.3 µM (active); in [9], 14.1 µM (active); in [10], > 100 µM (inactive).
Regarding `O=C1C(Nc2ccccc2)=C(NS(=O)(=O)c2ccccc2[N+](=O)[O-])C(=O)c2ccccc21`, the AC50 in [11] and in assay [12] was > 70 µM (inactive) in each case.
With `COCC#Cc1ccc([C@@H]2[C@H](CO)N3CCCCN(S(=O)(=O)c4ccc(OC)cc4)C[C@@H]23)cc1`, the AC50 in assay [13] is 1.81 µM (active); in [14], 98.4 µM (active); in assay [15] it was 2.47 µM (active); in [16], 1.33 µM (active); in [17], 1.48 µM (active).
Regarding `COc1ccc(C2=C(NC(=O)c3ccc(Cl)cc3)C(=O)c3ccccc3C2=O)cc1`, the AC50 in assay [11] was 35.3 µM (active); in assay [12], 18.2 µM (active).
